From patent US20240300980A1, “HETEROCYCLIC COMPOUNDS AS KRAS INHIBITOR, AND PREPARATION THEREFOR AND USE THEREOF IN TREATMENT” (SHANGHAI KECHOW PHARMA, INC., priority 2021, published 2024)

test system: AGS cells (KRAS^G12D); assay: Detection of cell proliferation in vitro by MTT/MTS method (cell activity experiment); format: cell-based; details: AGS cells; MTT/MTS; 3 days of drug treatment; read-out: AGS IC50
Procedure, shortened: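 After 3-day compound exposure (final DMSO 0.5%), viability of AGS (KRAS G12D) cells, plated 1000/well one day before dosing, was measured at 490 nm following 4 h MTT or MTS incubation. IC50 was fitted from dose–effect curves relative to DMSO-treated wells.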

Row | SMILES | IC50 [µM]
1 | CC1CCCc2cc(O)cc(-c3ccc4c(N5C[C@H]6CC[C@@H](C5)N6)nc(OC[C@@]56CCCN5C[C@H](F)C6)nc4c3F)c21 (single isomer, unassigned) [Example 287] | 2.14
2 | C#Cc1c(F)ccc2cc(O)cc(-c3ccc4c(N5C[C@H]6CC[C@@H](C5)[C@@H]6C#N)nc(OC[C@@]56CCCN5C[C@H](F)C6)nc4c3F)c12 [Example 127, (1R,5S,8S)-3-(7-(8-ethynyl-7-fluoro-3-hydroxynaphthalen-1-yl)-8-fluoro-2-(((2R,7aS)-2-fluorotetrahydro-1H-pyrrolizin-7a(5H)-yl)methoxy)quinazolin-4-yl)-3-azabicyclo [3.2.1]octane-8-carbonitrile] | > 2.5

same assay, conditions: Homo sapiens, AGS, 72 h, AGS cells; MTT/MTS; 3 days of drug treatment; read-out: AGS IC50

Row | SMILES | IC50 [µM]
3 | Oc1cc(N2CCc3c(nc(OC[C@@]45CCCN4C[C@H](F)C5)nc3N3C[C@H]4CC[C@@H](C3)N4)C2)c2c(F)cccc2c1 [Example 205, 4-(4-((1R,5S)-3,8-diazabicyclo[3.2.1]octan-3-yl)-2-(((2R,7aS)-2-fluorotetrahydro-1H-pyrrolizin-7a(5H)-yl)methoxy)-5,8-dihydropyrido[3,4-d]pyrimidin-7(6H)-yl)-5-fluoronaphthalen-2-ol] | 0.018
4 | CCC1CCCc2cc(O)cc(-c3c(Cl)cc4c(N5C[C@H]6CC[C@@H](C5)N6)nc(OC[C@@]56CCCN5C[C@H](F)C6)nc4c3F)c21 (stereo partly drawn) [Example 303, 4-(4-((1R,5S)-3,8-diazabicyclo[3.2.1]octan-3-yl)-6-chloro-8-fluoro-2-(((2R,7aS)-2-fluorotetrahydro-1H-pyrrolizin-7a(5H)-yl)methoxy)quinazolin-7-yl)-5-ethyl-5,6,7,8-tetrahydronaphthalen-2-ol] | 0.022
5 | CCc1c(F)ccc2cc(O)cc(-c3ccc4c(N5C[C@H]6CC[C@@H](C5)S6(=O)=O)nc(OC[C@@]56CCCN5C[C@H](F)C6)nc4c3F)c12 [Example 163, (1R,5S)-3-(7-(8-ethyl-7-fluoro-3-hydroxynaphthalen-1-yl)-8-fluoro-2-(((2R,7aS)-2-fluorotetrahydro-1H-pyrrolizin-7a(5H)-yl)methoxy)quinazolin-4-yl)-8-thia-3-azabicyclo[3.2.1]octane 8,8-dioxide] | > 2.5
6 | C#Cc1c(F)ccc2cc(O)cc(-c3ccc4c(N5CC6CCCNC6C5)nc(OC[C@@]56CCCN5C[C@H](F)C6)nc4c3F)c12 (stereo partly drawn) [Example 112, 5-ethynyl-6-fluoro-4-(8-fluoro-2-(((2R,7aS)-2-fluorotetrahydro-1H-pyrrolizin-7a(5H)-yl)methoxy)-4-(octahydro-6H-pyrrolo[3,4-b]pyridin-6-yl)quinazolin-7-yl) naphthalen-2-ol] | > 2.5
7 | C#Cc1c(F)ccc2cc(O)cc(-c3ncc4c(N5CCC6(CCCN6)CC5)nc(OC[C@@]56CCCN5C[C@H](F)C6)nc4c3F)c12 [Example 47, 5-ethynyl-6-fluoro-4-(8-fluoro-2-(((2R,7aS)-2-fluorotetrahydro-1H-pyrrolizin-7a(5H)-yl)methoxy)-4-(1,8-diazaspiro[4.5]decan-8-yl)pyrido[4,3-d]pyrimidin-7-yl) naphthalen-2-ol] | 4.54
8 | C#Cc1c(F)ccc2cc(O)cc(-c3ncc4c(N5CC6CCC(C5)C6S(C)(=O)=O)nc(OC[C@@]56CCCN5C[C@H](F)C6)nc4c3F)c12 (stereo partly drawn) [Example 66, 5-ethynyl-6-fluoro-4-(8-fluoro-2-(((2R,7aS)-2-fluorotetrahydro-1H-pyrrolizin-7a(5H)-yl)methoxy)-4-((1R,5S, 8R)-8-(methylsulfonyl)-3-azabicyclo[3.2.1]octan-3-yl)pyrido[4,3-d]pyrimidin-7-yl) naphthalen-2-ol] | > 10
9 | C#Cc1c(F)ccc2cccc(-c3ccc4c(N5C[C@H]6CC[C@@H](C5)N6)nc(OC[C@]56CCCN5[C@@H](COC(=O)N(C)C)CC6)nc4c3F)c12 [Example 98, ((3R,7aR)-7a-(((4-((1R,5S)-3,8-diazabicyclo[3.2.1]octan-3-yl)-7-(8-ethynyl-7-fluoronaphthalen-1-yl)-8-fluoroquinazolin-2-yl)oxy)methyl)hexahydro-1H-pyrrolizin-3-yl) methyl dimethylcarbamate] | 0.129
